Patent publication US10836763B2, “5 to 7 membered heterocyclic amides as JAK inhibitors” (priority 2018, dated 2020)
Where two headings read alike, the source gives them in different places.

Tests used:
JAK1 = JAK1 (Homo sapiens (Human), UniProt P23458); test: Biochemical JAK kinase assay (LanthaScreen), JAK1
Description: (§1) Assay 1: Biochemical JAK Kinase Assays
(§2) A panel of four LanthaScreen JAK biochemical assays (JAK1, 2, 3 and Tyk2) were carried in a common kinase reaction buffer (50 mM HEPES, pH 7.5, 0.01% Brij-35, 10 mM MgCl2, and 1 mM EGTA). Recombinant GST-tagged JAK enzymes and a GFP-tagged STAT1 peptide substrate were obtained from Life Technologies.
(§3) Serially diluted compounds were pre-incubated with each of the four JAK enzymes and the substrate in white 384-well microplates (Corning) at ambient temperature for 1 h. ATP was subsequently added to initiate the kinase reactions in 10 μL total volume, with 1% DMSO. […] Kinase reactions were allowed to proceed for 1 hour at ambient temperature before a 10 μL preparation of EDTA (10 mM final concentration) and Tb-anti-pSTAT1 (pTyr701) antibody (Life Technologies, 2 nM final concentration) in TR-FRET dilution buffer (Life Technologies) was added. The plates were allowed to incubate at ambient temperature for 1 h before being read on the EnVision reader (Perkin Elmer). Emission ratio signals (520 nm/495 nm) were recorded and utilized to calculate the percent inhibition values based on DMSO and background controls.
(§4) For dose-response analysis, percent inhibition data were plotted vs. compound concentrations, and IC50 values were determined from a 4-parameter robust fit model with the Prism software (GraphPad Software). Results were expressed as pIC50 (negative logarithm of IC50) and subsequently converted to pKi (negative logarithm of dissociation constant, Ki) using the Cheng-Prusoff equation.

Lung S9 metabolism = type: in vitro ADME, human; details: for Compound Remaining at 60 min (%) / microsomal CLint at 1 µM: human lung S9, 1 μM compound, 1 mg/mL S9 protein, NADPH and PAPS; for microsomal CLint at 1 µM: lung S9 fraction, pH 7.4, read-out: Clearance; for Sulfate Appearance: qualitative, O-sulfate metabolite peak in human lung S9
Description: Assay 5: Lung S9 Metabolism […] Lung S9 fractions from human (lot 1410245) were purchased from XenoTech LLC (Lenexa, Kans.). NADPH (Sigma Aldrich, N1630) and 3-phosphoadenosine 5-phosphosulfate (PAPS) (Sigma Aldrich, A1651) were purchased from Sigma Aldrich (St. Louis, Mo.). Acetonitrile and water were obtained from VWR (Radnor, Pa.) and were of HPLC grade or better. Raloxifene and formic acid was purchased from Sigma Aldrich (St. Louis, Mo.). Lung S9 incubations were performed in a water bath at 37° C. in a 96-well polypropylene plate. […] All samples were centrifuged at 2250 g for 10 minutes at 5° C. Supernatant (50 μL) was taken from the centrifuged samples and diluted into 100 μL HPLC water containing internal standard. […] Mobile Phase A consisted of Water+0.2% formic acid and Mobile Phase B consisted of acetonitrile+0.2% formic acid. Peak integration was accomplished using Gubbs GMSU software (Gubbs Inc., Alpharetta, Ga.). For each sample, peak area ratios were calculated by dividing the analyte peak area by the internal standard peak area. […] Determination of sulfate metabolite formation was made qualitatively by observation of early-eluting peak in the parent ion channel which, based on historical internal data, corresponded to the O-sulfate metabolite of each parent compound.

Tyk2 = Tyk2 (Homo sapiens (Human), UniProt P29597); test: Biochemical JAK kinase assay (LanthaScreen), Tyk2
Description: as §1, §2, §3, §4

[1] = Lung and plasma drug concentration in the murine IL-13 pSTAT6 model; type: in vivo; details: mouse, other: oral aspiration, 50 µg/mouse; for Kp at 5 h: Balb/c, lung ng/g to plasma ng/mL at 5 hours, mice, oral aspiration, read-out: Lung to Plasma ratio at 5 hr; for concentration at 5 h: Balb/c mice, 1 mg/mL, 50 μL oral aspiration, 5 hr post dose
Description: (§5) Assay 3: Murine (Mouse) Model of IL-13 Induced pSTAT6 Induction in Lung Tissue
Adult Balb/c mice from Harlan were used in the assay. […] Animals were placed in lateral recumbency post dose and monitored for full recovery from anesthesia before being returned to their home cage. Four hours later, animals were once again briefly anesthetized and challenged with either vehicle or IL-13 (0.03 μg total dose delivered, 50 μL total volume) via oral aspiration before being monitored for recovery from anesthesia and returned to their home cage. One hour after vehicle or IL-13 administration, whole blood and lungs were collected for both pSTAT6 detection in lung homogenates using a Perkin Elmer AlphaLISA® SureFire® Ultra™ HV p-STAT6 (Tyr641) assay kit and for total drug concentration analysis in both lung and plasma. Blood samples were centrifuged (Eppendorf centrifuge, 5804R) for 4 minutes at approximately 12,000 rpm at 4° C. to collect plasma. […] Plasma and lung levels of test compound were determined by LC-MS analysis against analytical standards constructed into a standard curve in the test matrix. A lung to plasma ratio was determined as the ratio of the lung concentration in ng/g to the plasma concentration in ng/mL at 5 hours.

[2] = test system: IL-13 induced pSTAT6 in lung tissue; test: Murine model of IL-13 induced pSTAT6 induction in lung tissue; type: in vivo, mouse; details: Balb/c mice, 1 mg/mL, 50 μL oral aspiration; IL-13 challenge 4 hours after compound; lung homogenate
Description: as §5
IL-13 binds to cell surface receptors activating members of the Janus family of kinases (JAK) which then phosphorylate STAT6 and subsequently activates further transcription pathways. In the described model, a dose of IL-13 was delivered locally into the lungs of mice to induce the phosphorylation of STAT6 (pSTAT6) which is then measured as the endpoint.
Activity in the model is evidenced by a decrease in the level of pSTAT6 present in the lungs of treated animals at 5 hours compared to the vehicle treated, IL-13 challenged control animals. The difference between the control animals which were vehicle-treated, IL-13 challenged and the control animals which were vehicle-treated, vehicle challenged dictated the 0% and 100% inhibitory effect, respectively, in any given experiment.

[3] = Pharmacokinetics in plasma and lung in mouse; type: in vivo; details: BALB/c mice, single oral aspiration, 0.2 mg/mL, 50 μL
Description: Assay 6: Pharmacokinetics in Plasma and Lung in Mouse
Plasma and lung concentrations of test compounds and ratios thereof were determined in the following manner. BALB/c mice from Charles River Laboratories were used in the assay. Test compounds were individually formulated in 20% propylene glycol in pH 4 citrate buffer at a concentration of 0.2 mg/mL and 50 μL of the dosing solution was introduced into the trachea of a mouse by oral aspiration. At various time points (typically 0.167, 2, 6, 24 hr) post dosing, blood samples were removed via cardiac puncture and intact lungs were excised from the mice.

[4] = ATP at Km 25 μM, pIC50 converted with Cheng-Prusoff
[5] = ATP at Km 10 μM, pIC50 converted with Cheng-Prusoff
[6] = lung, read-out: Lung Concentration (ng/g) at 5 hr
[7] = plasma, read-out: Plasma Concentration (ng/mL) at 5 hr

Chain of JAK1 (P23458 whole entry): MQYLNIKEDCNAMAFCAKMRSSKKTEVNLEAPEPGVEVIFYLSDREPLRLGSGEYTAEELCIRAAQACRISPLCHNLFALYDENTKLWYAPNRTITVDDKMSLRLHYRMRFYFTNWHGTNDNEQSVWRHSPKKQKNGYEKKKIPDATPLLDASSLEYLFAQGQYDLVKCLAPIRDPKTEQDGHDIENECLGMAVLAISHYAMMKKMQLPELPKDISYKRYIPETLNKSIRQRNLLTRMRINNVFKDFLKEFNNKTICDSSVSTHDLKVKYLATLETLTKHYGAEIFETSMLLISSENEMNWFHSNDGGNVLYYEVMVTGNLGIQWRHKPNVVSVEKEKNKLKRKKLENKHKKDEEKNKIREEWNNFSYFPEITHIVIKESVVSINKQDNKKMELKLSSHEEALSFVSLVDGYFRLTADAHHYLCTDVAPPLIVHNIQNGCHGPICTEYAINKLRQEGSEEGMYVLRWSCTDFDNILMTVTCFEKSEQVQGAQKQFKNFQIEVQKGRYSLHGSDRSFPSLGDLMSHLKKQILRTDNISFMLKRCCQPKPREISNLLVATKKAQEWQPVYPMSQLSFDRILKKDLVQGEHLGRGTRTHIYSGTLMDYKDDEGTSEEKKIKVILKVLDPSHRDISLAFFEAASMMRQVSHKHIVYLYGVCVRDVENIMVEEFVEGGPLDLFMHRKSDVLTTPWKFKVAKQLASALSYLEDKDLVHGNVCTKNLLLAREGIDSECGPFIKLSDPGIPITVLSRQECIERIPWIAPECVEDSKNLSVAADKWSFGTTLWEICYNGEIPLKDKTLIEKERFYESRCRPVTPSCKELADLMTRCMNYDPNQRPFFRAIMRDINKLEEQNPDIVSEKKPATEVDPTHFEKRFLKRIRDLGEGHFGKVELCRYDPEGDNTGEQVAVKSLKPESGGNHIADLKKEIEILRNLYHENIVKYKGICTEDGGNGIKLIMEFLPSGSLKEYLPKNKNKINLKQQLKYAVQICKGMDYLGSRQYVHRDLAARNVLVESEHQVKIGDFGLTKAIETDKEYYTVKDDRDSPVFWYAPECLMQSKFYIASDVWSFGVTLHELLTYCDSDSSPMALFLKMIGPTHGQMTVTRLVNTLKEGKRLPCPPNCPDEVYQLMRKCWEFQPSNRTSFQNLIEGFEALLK
Chain of Tyk2 (P29597 whole entry): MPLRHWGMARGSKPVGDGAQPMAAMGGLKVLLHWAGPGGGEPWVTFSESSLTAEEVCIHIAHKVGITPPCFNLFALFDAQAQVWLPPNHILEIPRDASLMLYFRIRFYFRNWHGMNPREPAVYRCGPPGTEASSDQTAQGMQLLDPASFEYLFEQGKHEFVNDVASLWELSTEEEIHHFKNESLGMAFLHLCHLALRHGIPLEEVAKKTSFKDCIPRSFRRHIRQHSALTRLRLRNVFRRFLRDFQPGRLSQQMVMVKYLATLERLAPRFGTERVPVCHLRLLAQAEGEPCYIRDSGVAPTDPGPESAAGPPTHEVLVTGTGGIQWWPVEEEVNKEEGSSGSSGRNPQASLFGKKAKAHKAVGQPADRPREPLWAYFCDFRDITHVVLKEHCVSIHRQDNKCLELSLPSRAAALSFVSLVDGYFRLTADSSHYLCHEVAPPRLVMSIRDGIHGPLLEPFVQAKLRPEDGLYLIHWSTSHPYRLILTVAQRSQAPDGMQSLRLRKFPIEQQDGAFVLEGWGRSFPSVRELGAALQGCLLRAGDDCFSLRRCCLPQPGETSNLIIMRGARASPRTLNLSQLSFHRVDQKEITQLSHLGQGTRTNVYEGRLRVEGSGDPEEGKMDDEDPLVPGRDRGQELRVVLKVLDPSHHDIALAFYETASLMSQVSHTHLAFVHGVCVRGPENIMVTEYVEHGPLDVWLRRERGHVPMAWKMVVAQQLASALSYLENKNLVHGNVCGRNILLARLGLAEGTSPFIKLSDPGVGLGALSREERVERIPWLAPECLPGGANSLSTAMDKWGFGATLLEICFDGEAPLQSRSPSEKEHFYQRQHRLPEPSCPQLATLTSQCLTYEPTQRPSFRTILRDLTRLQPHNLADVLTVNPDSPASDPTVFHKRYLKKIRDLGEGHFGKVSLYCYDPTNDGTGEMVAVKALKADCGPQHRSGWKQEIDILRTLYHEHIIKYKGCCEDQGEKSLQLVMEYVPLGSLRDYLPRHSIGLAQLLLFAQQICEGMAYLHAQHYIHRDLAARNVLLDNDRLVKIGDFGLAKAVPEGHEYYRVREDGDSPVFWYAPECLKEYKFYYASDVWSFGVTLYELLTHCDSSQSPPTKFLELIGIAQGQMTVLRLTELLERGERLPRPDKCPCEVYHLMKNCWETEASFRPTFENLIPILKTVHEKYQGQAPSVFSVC

| Structure (SMILES) | JAK1 pKi (JAK1; [4]) | Compound Remaining at 60 min (%) (Lung S9 metabolism) | microsomal CLint at 1 µM (Lung S9 metabolism) [µL/min/mg] | Sulfate Appearance (Lung S9 metabolism) | Tyk2 pKi (Tyk2; [5]) | Kp at 5 h [1] | concentration at 5 h [1, 6] [ng/g] | concentration at 5 h [1, 7] [ng/mL] | pSTAT6 inhibition at 5 hours [2] [%] | JAK1 pKi (JAK1) | Tyk2 pKi (Tyk2) | Lung Tissue AUC(0-24) [3] [µg·h/g] | Kp ([3]; mouse, lung / plasma, other: oral aspiration into the trachea, 10 µg/mouse, read-out: Lung Tissue:Plasma AUC ratio) | AUC(0-t) ([3]; mouse, plasma, other: oral aspiration into the trachea, 10 µg/mouse, read-out: Plasma AUC(0-24)) [ng·h/mL] |
| --- | --- | --- | --- | --- | --- | --- | --- | --- | --- | --- | --- | --- | --- | --- |
| CCCN1Cc2[nH]c(-c3n[nH]c4cc(-c5ccc(O)cc5CC)ccc34)nc2C[C@H]1C(=O)N1C[C@@H]2C[C@H]1CN2C [Compound 2, ((S)-2-(6-(2-ethyl-4-hydroxyphenyl)-1H-indazol-3-yl)-5-propyl-4,5,6,7-tetrahydro-3H-imidazo[4,5-c]pyridin-6-yl)((1S,4S)-5-methyl-2,5-diazabicyclo[2.2.1]heptan-2-yl)methanone] | 10.3 | 81 | 3.5 | Yes | 8.9 | 1340 | 23400 ± 12500 | 17.5 ± 25 | 72 |  |  |  |  |  |
| CCc1cc(O)c(F)cc1-c1ccc2c(-c3nc4c([nH]3)CN(C(C)C)[C@H](C(=O)N3CCCN(C)CC3)C4)n[nH]c2c1 [Compound C-4, (S)-(2-(6-(2-ethyl-5-fluoro-4-hydroxyphenyl)-1H-indazol-3-yl)-5-isopropyl-4,5,6,7-tetrahydro-3H-imidazo[4,5-c]pyridin-6-yl)(4-methyl-1,4-diazepan-1-yl)methanone, reference compound] | 10.0 | 4 | 53.4 | Yes | 9.3 |  |  |  |  |  |  |  |  |  |
| CCc1cc(O)ccc1-c1ccc2c(-c3nc4c([nH]3)CN(C(C)C)[C@H](C(=O)N3CC[C@H](N(C)C)C3)C4)n[nH]c2c1 [Compound 6, ((S)-3-(dimethylamino)pyrrolidin-1-yl)((S)-2-(6-(2-ethyl-4-hydroxyphenyl)-1H-indazol-3-yl)-5-isopropyl-4,5,6,7-tetrahydro-3H-imidazo[4,5-c]pyridin-6-yl)methanone] |  | 82 | 3.4 | Yes |  | 1030 | 11600 ± 4680 | 11.3 ± 5.7 | 37 | 10.2 | 9.0 |  |  |  |
| CCc1cc(O)c(F)cc1-c1ccc2c(-c3nc4c([nH]3)CN(C)[C@H](C(=O)N3CCN(C)C[C@@H]3C)C4)n[nH]c2c1 [Compound C-3, ((S)-2,4-dimethylpiperazin-1-yl)((S)-2-(6-(2-ethyl-5-fluoro-4-hydroxyphenyl)-1H-indazol-3-yl)-5-methyl-4,5,6,7-tetrahydro-3H-imidazo[4,5-c]pyridin-6-yl)methanone, reference compound] |  | 14 | 33.2 | Yes | 9.3 |  |  |  |  |  |  |  |  |  |
| CCCN1Cc2[nH]c(-c3n[nH]c4cc(-c5cc(F)c(O)cc5CC)ccc34)nc2C[C@H]1C(=O)N1CCN(CCO)CC1 [Compound C-1, (S)-(2-(6-(2-ethyl-5-fluoro-4-hydroxyphenyl)-1H-indazol-3-yl)-5-propyl-4,5,6,7-tetrahydro-3H-imidazo[4,5-c]pyridin-6-yl)(4-(2-hydroxyethyl)piperazin-1-yl)methanone, reference compound] | 10.2 | 29 | 20.8 | Yes | 9.1 |  |  |  |  |  |  |  |  |  |
| CCc1cc(O)ccc1-c1ccc2c(-c3nc4c([nH]3)CN(C)[C@H](C(=O)N3CCN(CCO)C[C@H]3C)C4)n[nH]c2c1 [Compound 5, ((S)-2-(6-(2-ethyl-4-hydroxyphenyl)-1H-indazol-3-yl)-5-methyl-4,5,6,7-tetrahydro-3H-imidazo[4,5-c]pyridin-6-yl)((R)-4-(2-hydroxyethyl)-2-methylpiperazin-1-yl)methanone] |  | 80 | 3.7 | Yes |  | 418 | 5440 ± 1860 | 13 ± 3.7 | 73 | 10.3 | 9.2 | 29.9 | 49.9 | 599 |
| CCCN1Cc2[nH]c(-c3n[nH]c4cc(-c5cc(F)c(O)cc5CC)ccc34)nc2C[C@H]1C(=O)N1C[C@@H]2C[C@H]1CN2C [Compound C-2, ((S)-2-(6-(2-ethyl-5-fluoro-4-hydroxyphenyl)-1H-indazol-3-yl)-5-propyl-4,5,6,7-tetrahydro-3H-imidazo[4,5-c]pyridin-6-yl)((1S,4S)-5-methyl-2,5-diazabicyclo-[2.2.1]heptan-2-yl)methanone, reference compound] | 10.3 | 3 | 61 | Yes | 9.5 |  |  |  |  |  |  |  |  |  |
| CCc1cc(O)c(F)cc1-c1ccc2c(-c3nc4c([nH]3)CN(C)[C@H](C(=O)N3CCN(CCO)C[C@H]3C)C4)n[nH]c2c1 [Compound C-5, ((S)-2-(6-(2-ethyl-5-fluoro-4-hydroxyphenyl)-1H-indazol-3-yl)-5-methyl-4,5,6,7-tetrahydro-3H-imidazo[4,5-c]pyridin-6-yl)((R)-4-(2-hydroxyethyl)-2-methyl-piperazin-1-yl)methanone, reference compound] | 10.1 | 8 | 42.2 | Yes | 9.5 |  |  |  |  |  |  |  |  |  |
